# Measurements taken from patent publication US20220017833A1, “Methods and Compositions for Scavenging Sulfides from Hydrocarbon Fluids and Aqueous Streams” (Nexgen Oilfield Chemicals, LLC, priority 2019, published 2022).
# Key:
# [1] = Storage Capacity Loss Test; assay type: physicochemical; conditions: for Min to BT / Min to FD: Short Reaction Time Capacity Test, diaminol in water + 10.00 g MeOH, 20 g test
# Protocol: This test compares the scavenging capacity after 24 hours of storage of the scavenger system at room temperature to that after 72 hours of storage thereof at room temperature. In one embodiment, a sample of the scavenger system is made fresh and split in two portions. The Short Reaction Time Capacity Test is run on one portion after standing 24 hours on the bench at room temperature. Then the same test is run on the other portion after standing 72 hours on the bench at room temperature. The two measured capacities are compared to see if the product degrades in storage. Importantly, some scavengers lose activity with time due to secondary reactions and re-equilibrations that degrade their active form.
# Table 5 compares different alkyl substituents on glyoxy alkyl diaminols. These compounds were prepared by reacting one mole of glyoxal, as a 40% aqueous solution, with 2.1 moles of various primary amines in a sufficient amount of MeOH to keep the product from separating into an aqueous layer and a non-aqueous layer. For each amine substituent: methyl (Me), ethyl (Et), normal-propyl (n-Pr), iso-propyl (i-Pr), and iso-propanol [1-propan-2-ol] (i-PrOH), the presence or absence of alpha branching on that substituent is noted. The weight ratios of the diaminols, water, and MeOH, are listed, along with their equivalent weights (Eq. Wt.) and the total equivalents per 20 g test (Eq/test). To measure the product stability, the Storage Capacity Loss between 24 and 72 hours was determined. As described earlier, a fresh sample of the scavenger system is split in two portions. The Short Reaction Time Capacity Test is run on one portion after standing 24 hours on the bench at room temperature. Then the same test is run on the other portion after standing 72 hours on the bench at room temperature. Both the 24-hr and 72-hr capacities (Min to FD and BT) and molar capacities (Min/Eq FD and BT) are listed in the table with the percent capacity loss for each substituent calculated below it. […] The others lost 34% to 77% of their scavenging capacity in 48 hours (72-24), presumably due to secondary reactions and re-equilibrations that degraded their active form. In this system employing only methanol, all of these compositions failed both the Hot Spray Fouling Test and the Spent Water Flowability Test. Two of them, the iso-propylamine [propan-2-amine] and the iso-propanolamine [1-aminopropan-2-ol] passed the Spent Solids Fouling Test.
# [2] = Long Reaction Time Capacity Test; conditions: 20 g test
# Source text: Referring now to FIG. 1, therein is schematically depicted a sulfide scavenger testing system 100 comprising a gas source 2, a flow regulator 4, gas treatment vessel 6, and a sulfide measurement device 8. In one testing embodiment, gas (not shown) is flowed from gas source 2 via gas feed piping 10 into flow regulator 4, which regulates gas flow to gas treatment vessel 6 via regulated gas feed piping 12. The regulated gas flows into gas treatment vessel 6 via a bottom inlet 14 thereof, where it comes into contact with a volume of liquid 16 comprising a sulfide scavenger system (not separately labeled). The gas, having been treated by the liquid, flows out of a top end 18 of gas treatment vessel 6 and flows into sulfide measurement device 8 via treated gas outlet piping 20.
# In one embodiment, the gas contained in gas source 2 consists substantially of about 15% H2S, and about 3% CO2, with the remainder being Methane. In one embodiment, gas flow from the flow regulator 4 is controlled such that the gas is flowed into the gas treatment vessel 6 at a flow rate of 100 mL/min. up to 500 mL/min. In one embodiment, a gas sparging device, such as a fine pore frit (not shown), is utilized to better distribute the gas into the scavenger liquid. In one embodiment, the gas treatment vessel 6 contains about 20 g of a liquid H2S scavenger, such as one or more diaminols/diaminacetals in a chemical system as described above. In one aspect, to the extent possible, H2S and/or CO2 are scavenged from the gas by the scavenger and the treated (“sweet”) gas exits top end 18 of treatment vessel 6. In one embodiment, sulfide measurement device 8 monitors the concentration of H2S leaving treatment vessel 6. in the gas phase. In other embodiments (not shown), a CO2 measurement device may be similarly employed to monitor the concentration of CO2 leaving treatment vessel 6 in the gas phase.
# In one embodiment, gas is flowed through sulfide scavenger testing system 100 until the outlet H2S concentration reaches a 4,000 ppm target, at which point the test is concluded. This relative time duration before the target is reached is used to compare H2S scavenger capacity given the kinetics of each sulfide scavenger system. The longer the duration, the better the capacity.
# In this test, methane containing 15% H2S and 3% CO2 by weight is sparged via a fine pore frit (not shown) at 100 mL/min through a column of 20 g of scavenger solution (See FIG. 1). The fine bubbles produced rise slowly, providing plenty of time, plenty of surface area, and a short path through which the H2S must diffuse to the scavenger in the liquid 16. Detector 8 on the outlet line 20 is used to measure H2S concentration in the exiting gas. The times to first detection (FD), at a threshold of 15 ppm, and to complete breakthrough (BT), at the detector saturation of 4000 ppm (0.4%), are recorded. This test is designed to measure the effective scavenging capacity in applications with long contact times.
# Note that the true total capacity of a scavenger with infinite time to react is simply equal to the stoichiometry of the reaction—the moles of H2S consumable per mole of scavenging molecule, which can be calculated. This Long Reaction Time Capacity measurement falls short of that ultimate stoichiometric capacity and so is still reaction rate dependent, just less so than the Short Reaction Time Capacity Test.
# [3] = Spent Solids Fouling Test; assay type: physicochemical; conditions: Table 5, glyoxy alkyl diaminol in water and MeOH only
# Source text: In every application, the active component of the scavenger system reacts with H2S to from a reaction product. Once all the active scavenger has been so reacted, it is spent. […] Thioethers are much less water soluble than amines, so the reaction products are often insoluble. Thioether bridges also connect spent scavenger molecules to each other, thereby forming insoluble polymeric solids. These solids accumulate and foul (interfere with the function) of the vessel, line, or equipment to which the scavenger is being fed. […] If any solids or insoluble viscous liquids are observed poorly dispersed in the spent scavenger system or clinging to the sides of the vessel, the scavenging system employed in that Long Reaction Time Capacity Test fails this test. A homogeneous, single-phase solution or thin layer of readily flowable non-sticking liquid constitutes a pass.
# [4] = 72-24 Hrs storage at room temperature
# [5] = Sample Age 24 Hrs at room temperature
# [6] = Sample Age 72 Hrs at room temperature
# [7] = Eq/test Triazine 0.068, GIDAc 0.185, GIDA 0.076
# [8] = Triazine 7.50 g + 12.50 g water, GIDAc 13.00 g as GID + 7.00 g MeOH, GIDA 6.68 g as GID, 3.32 g water, 8.00 g MeOH, 2.00 g BuOH
structure (smiles),measurement,setting,value
"CC(C)NC(O)C(O)NC(C)C (centres unmarked) [GIDA, 1,2-bis[(propan-2-yl)amino]ethane-1,2-diol]",BT Capacity Loss,[1]; [4],−2%
same,FD Capacity Loss,[1]; [4],0%
same,Min/Eq BT,[1]; Sample Age 24 Hrs,528 Min/Eq
same,Min/Eq FD,[1]; Sample Age 24 Hrs,409 Min/Eq
same,Min to BT,[1]; [5],40 min
same,Min to FD,[1]; [5],31 min
same,Min/Eq BT,[1]; Sample Age 72 Hrs,541 Min/Eq
same,Min/Eq FD,[1]; Sample Age 72 Hrs,409 Min/Eq
same,Min to BT,[1]; [6],41 min
same,Min to FD,[1]; [6],31 min
same,loss of scavenging capacity (degradation) in storage,"[1]; in 48 hours (72-24), room temperature",no degradation
same,Min/Eq BT,[2]; [7],805 Min/Eq
same,Min/Eq FD,[2]; [7],607 Min/Eq
same,Min to BT,[2]; [8],61 min
same,Min to FD,[2]; [8],46 min
same,Spent Solids Fouling,[3]; listed as i-Pr,Pass
same,Spent Solids Fouling,[3]; listed as iso-propylamine,passed
